Experiment: molar heat capacity at saturation pressure

NC12CC3CC(CC(C3)C1)C2 [tricyclo(3.3.1.1:3,7)decan-1-amine]
Conditions | molar heat capacity [J/K/mol]
269.16 K, Crystal 2 | 252.76
271.09 K, Crystal 2 | 258.66
273 K, Crystal 2 | 272.05
274.91 K, Crystal 2 | 282.28
276.81 K, Crystal 2 | 299.57
278.68 K, Crystal 2 | 329.42
280.53 K, Crystal 2 | 365.67
282.42 K, Crystal 2 | 373.74
288.85 K, Crystal 1, Small (less than 1 g) adiabatic calorimetry | 291.09
293.37 K, Crystal 1, Small (less than 1 g) adiabatic calorimetry | 265.9
295.36 K, Crystal 1, Small (less than 1 g) adiabatic calorimetry | 265.81
297.3 K, Crystal 1, Small (less than 1 g) adiabatic calorimetry | 265.98
299.23 K, Crystal 1, Small (less than 1 g) adiabatic calorimetry | 266.56
301.17 K, Crystal 1, Small (less than 1 g) adiabatic calorimetry | 266.89
303.1 K, Crystal 1, Small (less than 1 g) adiabatic calorimetry | 267.48
305.04 K, Crystal 1, Small (less than 1 g) adiabatic calorimetry | 267.89
306.98 K, Crystal 1, Small (less than 1 g) adiabatic calorimetry | 268.56
308.92 K, Crystal 1, Small (less than 1 g) adiabatic calorimetry | 268.89
309.23 K, Crystal 1, Small (less than 1 g) adiabatic calorimetry | 268.97
310.85 K, Crystal 1, Small (less than 1 g) adiabatic calorimetry | 268.89
311.41 K, Crystal 1, Small (less than 1 g) adiabatic calorimetry | 269.47
312.79 K, Crystal 1, Small (less than 1 g) adiabatic calorimetry | 269.39
313.59 K, Crystal 1, Small (less than 1 g) adiabatic calorimetry | 269.97
314.73 K, Crystal 1, Small (less than 1 g) adiabatic calorimetry | 269.97
315.77 K, Crystal 1, Small (less than 1 g) adiabatic calorimetry | 270.14
316.67 K, Crystal 1, Small (less than 1 g) adiabatic calorimetry | 270.05
317.96 K, Crystal 1, Small (less than 1 g) adiabatic calorimetry | 270.55
318.61 K, Crystal 1, Small (less than 1 g) adiabatic calorimetry | 270.8
320.14 K, Crystal 1, Small (less than 1 g) adiabatic calorimetry | 270.97
320.55 K, Crystal 1, Small (less than 1 g) adiabatic calorimetry | 271.05
322.32 K, Crystal 1, Small (less than 1 g) adiabatic calorimetry | 271.47
324.44 K, Crystal 1, Small (less than 1 g) adiabatic calorimetry | 271.8
324.5 K, Crystal 1, Small (less than 1 g) adiabatic calorimetry | 272.13
326.39 K, Crystal 1, Small (less than 1 g) adiabatic calorimetry | 272.55
326.7 K, Crystal 1, Small (less than 1 g) adiabatic calorimetry | 272.05
328.33 K, Crystal 1, Small (less than 1 g) adiabatic calorimetry | 272.71
328.88 K, Crystal 1, Small (less than 1 g) adiabatic calorimetry | 272.88
330.27 K, Crystal 1, Small (less than 1 g) adiabatic calorimetry | 273.05
331.06 K, Crystal 1, Small (less than 1 g) adiabatic calorimetry | 273.71
332.22 K, Crystal 1, Small (less than 1 g) adiabatic calorimetry | 273.55
333.25 K, Crystal 1, Small (less than 1 g) adiabatic calorimetry | 273.88
334.16 K, Crystal 1, Small (less than 1 g) adiabatic calorimetry | 273.8
335.43 K, Crystal 1, Small (less than 1 g) adiabatic calorimetry | 274.38
336.11 K, Crystal 1, Small (less than 1 g) adiabatic calorimetry | 274.21
337.62 K, Crystal 1, Small (less than 1 g) adiabatic calorimetry | 274.79
338.05 K, Crystal 1, Small (less than 1 g) adiabatic calorimetry | 274.88
339.81 K, Crystal 1, Small (less than 1 g) adiabatic calorimetry | 275.29
340 K, Crystal 1, Small (less than 1 g) adiabatic calorimetry | 275.21
341.94 K, Crystal 1, Small (less than 1 g) adiabatic calorimetry | 275.79
342 K, Crystal 1, Small (less than 1 g) adiabatic calorimetry | 275.96
343.89 K, Crystal 1, Small (less than 1 g) adiabatic calorimetry | 276.54
344.18 K, Crystal 1, Small (less than 1 g) adiabatic calorimetry | 276.79
345.84 K, Crystal 1, Small (less than 1 g) adiabatic calorimetry | 277.2
346.37 K, Crystal 1, Small (less than 1 g) adiabatic calorimetry | 277.45
347.78 K, Crystal 1, Small (less than 1 g) adiabatic calorimetry | 277.79
348.56 K, Crystal 1, Small (less than 1 g) adiabatic calorimetry | 278.2
349.73 K, Crystal 1, Small (less than 1 g) adiabatic calorimetry | 278.37
350.75 K, Crystal 1, Small (less than 1 g) adiabatic calorimetry | 279.03
351.68 K, Crystal 1, Small (less than 1 g) adiabatic calorimetry | 278.87
352.94 K, Crystal 1, Small (less than 1 g) adiabatic calorimetry | 279.78
353.63 K, Crystal 1, Small (less than 1 g) adiabatic calorimetry | 279.37
355.12 K, Crystal 1, Small (less than 1 g) adiabatic calorimetry | 280.28
355.58 K, Crystal 1, Small (less than 1 g) adiabatic calorimetry | 280.45
357.31 K, Crystal 1, Small (less than 1 g) adiabatic calorimetry | 281.03
357.53 K, Crystal 1, Small (less than 1 g) adiabatic calorimetry | 281.03
359.47 K, Crystal 1, Small (less than 1 g) adiabatic calorimetry | 281.86
359.5 K, Crystal 1, Small (less than 1 g) adiabatic calorimetry | 282.03
361.42 K, Crystal 1, Small (less than 1 g) adiabatic calorimetry | 282.61
361.71 K, Crystal 1, Small (less than 1 g) adiabatic calorimetry | 282.53
363.37 K, Crystal 1, Small (less than 1 g) adiabatic calorimetry | 283.36
363.9 K, Crystal 1, Small (less than 1 g) adiabatic calorimetry | 283.52
365.32 K, Crystal 1, Small (less than 1 g) adiabatic calorimetry | 284.52
366.08 K, Crystal 1, Small (less than 1 g) adiabatic calorimetry | 284.69
367.27 K, Crystal 1, Small (less than 1 g) adiabatic calorimetry | 285.52

— the NIST ThermoML archive (doi:10.1016/j.jct.2007.08.002)
